The values below come from US12031087B2, “Oxygenated solvents for improved production of oil and gas” (Board of Regents, The University of Texas System, priority 2019, dated 2024).

Assay [1] is described as follows: Coreflooding of fractured cores, vertical (Example 2). As for the experimental part:
Experimental Procedure for Coreflooding. […] The Indiana limestone cores have the common dimensions with a diameter of 0.0254 m and a length of 0.127 m. The cores were saturated with RB first and then oil, during which the core properties were measured, such as porosity, permeability, and water and oil saturations.
It includes an accumulator for crude oil, a pump, a Hassler-type core holder, a hydraulic manual pump to maintain the overburden pressure, a differential pressure gauge, cylinders, and an oven. After a core was placed in the core holder, oil was injected into the cores at 100 cm^3/h and 347 K until no water production was observed.
An artificial fracture was created along the longitudinal axis using an electric saw for each core (FIG. 20). By following the procedure of Mejia, Teflon spacers with 0.001 m in width and 0.127 m in length were placed along two edges of the fracture to maintain a fracture aperture. Then, the core halves were carefully put together with the Teflon spacers in the fracture, wrapped with a Teflon tube, and placed inside a vertically oriented coreholder.
FIG. 21 provides a schematic of the experimental setup for coreflooding. It consists of accumulators for crude oil, RB, and chemical solution (3-pentanone or surfactant), a pump, a Hassler-type core holder, a hydraulic manual pump to maintain the overburden pressure, a differential pressure gauge, cylinders, and an oven. […] After a fractured core was placed in the coreholder, the oven temperature was increased to reservoir temperature (347 K). Then, the core was flooded with crude oil to remove any gas inside the fracture and measure the fracture permeability using the flow rate of 900 cm^3/h. The overburden pressure was adjusted so that all cores used in this research had similar fracture apertures and fracture permeabilities.
Fracture permeabilities were calculated. The equation for flow between parallel plates b=(3πdke)^1/3 was used to estimate a fracture aperture, where b is the fracture aperture, d is the core diameter, and ke is the effective oil permeability of the fractured core. […] Af and Am are cross-sectional areas of the fracture and matrix, respectively. kf and km are permeabilities of the fracture and matrix, respectively.
The initial RB stage was at 6 cm^3/h for 1.5 pore volumes injected (PVI), then at 0.05 cm^3/h for 0.3-0.4 PVI, and at 6 cm^3/h until there was no oil production. After that, a chemical slug (3-pentanone or surfactant) was injected at 0.6 cm^3/h for 1.6 PVI. Finally, the chase RB was injected at 0.6 cm^3/h. […] However, it was terminated after 1.2 PVI of the chase RB for core 1 because of operational constraints.
The coreflood effluent was collected in plastic graduating cylinders at room temperature. To correct the oil recovery factor for 3-pentanone solubility in oil, the 3-pentanone concentration in recovered oil was measured by the proton nuclear magnetic resonance (H NMR) method for the chemical slug and chase RB flooding periods for core 1.

The text on assay [2]: Experimental Procedure for Flooding/Soaking Experiments. […] This section describes the preparation of the tight cores and the flooding/soaking experiments. Properties of the tight carbonate cores and the injection scheme for two flooding/soaking experiments are also summarized in this section.
Rocherons carbonate cores (Kocurek Industries Inc.) were used in this research. […] In this research, 11 core pieces were saturated only by crude oil and 5 core pieces were saturated by both crude oil and reservoir brine at room temperature. To saturate core pieces by crude oil, they were placed in an accumulator, which was evacuated for at least 24 hours. […] The weights of the core pieces were measured before and after saturating by crude oil to quantify the oil volume in the cores. The volume so determined was assumed to be the accessible pore volume (PV) of the core. […] It consists of an accumulator for reservoir brine, a pump, a Hassler-type core-holder, a hydraulic manual pump to maintain the overburden pressure and cylinders. Before brine injection, the inlet tubing of the coreholder was evacuated for 10 seconds to prevent injecting air into the core. The core was flooded by brine until the injected brine volume exceeded the accessible pore volume. […] The weights of the core pieces were measured after they were re-saturated by the crude oil. The brine and oil volumes in the core pieces were calculated by the following equations. […] Then, oil and brine saturations in each core piece can be calculated. Table 19 presents the properties of the core pieces, including the length of each core piece, accessible pore volume, and oil and brine saturations. Core pieces #1-#5 in Table 19 were saturated by both brine and oil.
An artificial fracture was created along the longitudinal axis using an electric saw for each core piece. Teflon spacers with 0.001 m in width were placed along two edges of the fracture to maintain a fracture aperture. Then, the core halves were carefully put together with the Teflon spacers placed in the fracture, wrapped with a Teflon tube and placed inside a horizontally-oriented core holder, with the fracture vertically-oriented. Teflon spacer was not placed in the space between core pieces. […] When assembling the core pieces for Case 1, core pieces were put so that oil saturation changes monotonically. Qualitatively, the longitudinal fracture served as a propped fracture and the fractures normal to it served as unpropped fractures in terms of hydraulic paths.
FIG. 59 presents a schematic of the experimental set-up for the flooding/soaking experiment. […] Then, the system was evacuated for 10 seconds to remove any air trapped in the fractures. After that, the core was flooded with crude oil to measure the fracture permeability by using the flow rate of 500 cm^3/hr under certain overburden pressure. Table 20 provides the pressure drops along the cores at a certain flow rate and the overburden pressures used.
During flooding/soaking experiments, the RB was injected at 6 ml/hr until no more oil production was observed. Then, the surfactant solution was injected at 6 ml/hr to fill the volume from the inlet of the coreholder until the outlet line of the coreholder, which was followed by a 10-hour soaking period. After that, the surfactant solution was injected at 6 ml/hr to chase the fluid in the system and to recover the produced oil during the first soaking period. The system was then shut-in for a second 10-hour soaking period. RB was then injected at 6 ml/hr to chase the fluid in the system and to recover the produced oil during the second soaking period. Finally, the system was shut-in for a 12-hour soaking period, followed by RB injection to chase the fluid in the system until no oil production.
The effluent was collected in plastic graduating cylinders at room temperature.

For assay [3] the following is noted: 347 K. The text has this:
Contact Angle Experiments. […] The procedure largely follows that of Example 1, but as explained below, a change to the previous procedure was necessary because it was not possible to continuously monitor oil droplets on the calcite surface with the surfactant solution.
Before the contact angle measurement, the chemical solution and RB were separately degasified at elevated temperatures. Then, oil-aged calcite pieces were placed in RB. Oil droplets were placed on the bottom surface of a calcite piece in the RB glass chamber.
The calcite piece was continued to be placed in the surfactant solution and taken out after 1 day. Then, the calcite piece was rinsed with RB and placed in RB with no surfactant. […] A photo of the oil droplet was taken then. The contact angles of both sides of each oil droplet were measured using onscreen protractor software. An average contact angle and standard deviation were then calculated.

Setting [4] is: 24 h after immersion in 1.0 wt % surfactant solution.

Where two headings read alike, the source gives them in different places.

For “2-ethylhexanol-4 propylene oxide-15 ethylene oxide [2-EH-4PO-15EO]”, in assay [1] (1.6 PVI slug after first RB flood, 1.1 wt % 3-pentanone in RB (core 1) or 1.0 wt % 2-EH-4PO-15EO in RB (core 2), 347 K), the “incremental oil recovery factor, chemical slug stage” value worked out at 23.6%. Besides, the “incremental oil recovery factor, chase RB flooding stage” value in assay [1] (7.0 PVI chase RB, core 2, 347 K) is listed as 23.7%. Besides, the “total improved oil recovery” value in assay [1] (chemical slug + chase RB stages (1.2 PVI chase core 1; 7.0 PVI chase core 2), 347 K) stood at 47.3%; in assay [2] (Case 1 (with initial water)), 76.11 % OOIM; in assay [2] (Case 2 (without initial water)), 78.42 % OOIM. The “Cumulative improved oil recovery factor by surfactant solution” value in assay [2] (Case 1 (with initial water), after the 1st soaking period) is given as 0.3348; in assay [2] (Case 1 (with initial water), after the 2nd soaking period) it was 0.6303; in assay [2] (Case 1 (with initial water), after the 3rd soaking period), 0.7611; in assay [2] (Case 2 (without initial water), after the 1st soaking period), 0.3555; in assay [2] (Case 2 (without initial water), after the 2nd soaking period), 0.6647; in assay [2] (Case 2 (without initial water), after the 3rd soaking period), 0.7842. Further, the incremental oil recovery in assay [2] (Case 1, after the 1st soaking period) is 33.48 % OOIM; in assay [2] (Case 1, after the 2nd soaking period), 29.55 % OOIM; in assay [2] (Case 1, after the 3rd soaking period) it was 13.09 % OOIM; in assay [2] (Case 2, after the 1st soaking period), 35.55 % OOIM; in assay [2] (Case 2, after the 2nd soaking period) it was 30.92 % OOIM; in assay [2] (Case 2, after the 3rd soaking period) it was 11.95 % OOIM. The Average contact angle was found to be 47.1 deg in assay [3] (setting [4]) and 134.1 deg in assay [3] (at the initialization). For the same substance, the “contact angle, left side” value turned out to be 47.5 deg in assay [3] (setting [4]) and 133.2 deg in assay [3] (at the initialization). Moreover, the “contact angle, right side” value in assay [3] (setting [4]) was determined as 46.8 deg; in assay [3] (at the initialization), 135.1 deg.
